{
  "source": "patent US5733917A",
  "about": "“Heterocyclic compound” (Taisho Pharmaceutical Co., Ltd., priority 1994, dated 1998)",
  "key": {"[1]": {"system": "serotonin 4 receptors", "conditions": "stimulants of serotonin 4 receptors; Alimentary Pharmacology and Therapeutics, vol. 6, page 273, 1992; cited from earlier work"}, "[2]": {"target": "T1, serotonin 4 receptor (Cavia porcellus, UniProt O70528)", "T1 construct": "from tissue; host or cells: ileum longitudinal muscle strips of Hartley guinea pigs", "T1 sequence (O70528 whole entry)": "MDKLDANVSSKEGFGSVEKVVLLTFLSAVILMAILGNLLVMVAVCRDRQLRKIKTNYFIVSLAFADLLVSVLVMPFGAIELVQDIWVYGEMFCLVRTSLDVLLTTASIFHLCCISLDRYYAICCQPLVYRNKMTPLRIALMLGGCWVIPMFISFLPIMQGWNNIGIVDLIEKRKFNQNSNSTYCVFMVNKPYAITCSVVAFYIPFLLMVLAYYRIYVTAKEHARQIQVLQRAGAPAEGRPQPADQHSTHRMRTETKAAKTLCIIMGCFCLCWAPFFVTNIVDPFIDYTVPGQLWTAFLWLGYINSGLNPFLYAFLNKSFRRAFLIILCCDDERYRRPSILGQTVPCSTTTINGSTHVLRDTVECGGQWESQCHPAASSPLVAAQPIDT", "experiment": "Stimulating action test on serotonin 4 receptor: twitch responses in electrically stimulated longitudinal muscle strips of guinea pig ileum", "type": "cell-based, guinea pig (Hartley)", "from_the_text": "Stimulating Action Test on Serotonin 4 Receptor Test Drugs\nTest Drug 1: Compound 1 of the present invention\nTest Drug 2: The compound described in Japanese Patent Kokai No. 3-197462 represented by the following formula: [drawing 5]\nTest Drug 3: The compound described in Japanese Patent Kokai No. 4-226980 represented by the following formula: [drawing 6]\nTwitch responses were examined in longitudinal muscle strips of guinea pig according to a modification of the method described in The Journal of Pharmacology and Experimental Therapeutics, vol. 252, page 1378, 1990.\nFrom Hartley guinea pigs, a section of ileum 25 cm in length and proximal to the ileocecal junction was removed. The longitudinal muscle strips obtained from two segments of ileum about 4 cm each in length were used for this test. The longitudinal muscle strips were suspended in Kreb's solution at 32° to 34° C. and bubbled with 95% O2 and 5% CO2 under a load of about 0.8 g. The responses were recorded under an electrical stimulation of 0.2 Hz, 1 msec pulse duration, using force displacement transducers. The longitudinal muscle strips were allowed to stand at supramaximal voltage for about an hour, and thereby were stable. After it was confirmed that the twitch responses were enhanced by 10^-8 M 5-HT, each test drug was examined on its activity for twitch responses. The test was carried out by exposing the strips to cumulative additions of the test drug at least at 45 minute intervals."}, "[3]": {"experiment": "Toxicity examination of mouse single administration (acute toxicity)", "conditions": "in vivo, single oral administration, read-out: LD value", "method": "With respect to toxicity of Compound (1) represented by Formula (I) which is an effective ingredient of the pharmaceutical composition of the present invention, as a result of the toxicity examination of mouse single administration (acute toxicity), the LD value is more than 500 mg/kg by oral administration."}, "[4]": {"system": "gastrointestinal motor", "experiment": "Action on gastrointestinal motor in dogs (strain gauge force transducers, motility index)", "type": "in vivo, Beagle dogs", "conditions": "for Motility Index: dog, gastric motor after feeding", "method": "Action on Gastrointestinal Motor in Dogs\nThe test was carried out by a modification of the method described in Gastroenterologia Japonica, vol. 12, page 275, 1977.\nBeagle dogs of both sexes weighing 9 to 15 kg were anesthetized with sodium pentobarbital and strain gauge force transducers were sutured on 5 portions, i.e. for determining antral, duodenum, jejunal, ileal and colonel motor responses. A cannula for administering a drug was mounted persistently into the jugular vein. After recovery of the surgery, motor responses of the dog under no-anesthesia without restriction at those portions on the gastrointestinal tract in both during a fasting period and after feeding were determined in the conscious […].\n(§1) The compound of the present invention was administered after dissolving in saline aqueous solution.\nThe motor index is shown in terms of a proportion (%) of a mean value calculated for 15 minutes to a value prior to administration (0 minute). The value for 0 minute was made a mean value for 30 minutes prior to the administration.\nTables 2 and 3 show the activity of the compound of the present invention in doses of 0.3 mg/kg for intravenous route and 1 mg/kg for oral route, respectively, on the gastric motor action after feeding."}, "[5]": {"system": "gastric emptying", "experiment": "Action on gastric emptying in rats (clonidine-treated, residual rate of glass balls in stomach)", "type": "in vivo, Male wistar rats", "conditions": "rat; for Residual rate in Stomach: relative to clonidine hydrochloride-treated animal", "method": "Action on Gastric Emptying in Rats\nThe test was carried out by a modification of the method described in British Journal of Pharmacology, vol. 91, page 263, 1987.\nMale wistar rats weighing 170 to 220 g were used after fasting for 24 hours.\nClonidine hydrochloride of 30 μg/kg was administered subcutaneously, and after 30 minutes the compound of the present invention was administered subcutaneously. After 30 minutes 1 ml of glass balls (500 mg/ml) was administered orally. After 30 minutes the glass balls remained in the stomach were recovered and weighed to determine the rate [residual rate in stomach (%)] to the residual amount in the stomach of the clonidine hydrochloride-treated animal.\nas §1"}, "[6]": {"conditions": "guinea pig ileum longitudinal muscle strips, electrical stimulation 0.2 Hz, 1 msec, cumulative additions at least at 45 minute intervals, read-out: ED50 (the source's name)"}},
  "note": "Like-named read-outs stand apart in the source and are kept apart here.",
  "data": [
    {"smiles": "COc1cc(N)c(Cl)cc1C(=O)NC1CCN(CCCOc2ccc(F)cc2)CC1OC", "note": "(centres unmarked) [Cisapride]", "values": [
      {"measurement": "gastrointestinal motor functions", "setting": "[1]", "value": "accelerate gastrointestinal motor functions"}
    ]},
    {"smiles": "NCCc1c[nH]c2ccc(O)cc12", "note": "[Compound 5-HT]", "values": [
      {"measurement": "twitch responses", "setting": "[2]; 10^-8 M 5-HT, confirmation before test drug", "value": "enhanced"}
    ]},
    {"smiles": "CC(C)n1c(=O)c(C(=O)O[C@H]2C[C@H]3CC[C@@H](C2)N3C)cc2ccccc21", "note": "[Compound (1), endo-(8-methyl-8-azabicyclo[3.2.1]oct-3-yl) 1-isopropyl-2(1H)-quinolone-3-carboxylate]", "values": [
      {"measurement": "LD50", "setting": "[3]", "value": "> 500", "unit": "mg/kg"},
      {"measurement": "EC50", "setting": "[2]", "value": 21.3, "unit": "nM"},
      {"measurement": "Motility Index", "setting": "[4]; intravenous 0.3 mg/kg, 0 min (value prior to administration, = 100), N = 3", "value": 100, "unit": "%"},
      {"measurement": "Motility Index", "setting": "[4]; intravenous 0.3 mg/kg, 15 min, N = 3, p < 0.05", "value": 247.8, "unit": "%"},
      {"measurement": "Motility Index", "setting": "[4]; intravenous 0.3 mg/kg, 30 min, N = 3, p < 0.01", "value": 219.8, "unit": "%"},
      {"measurement": "Motility Index", "setting": "[4]; intravenous 0.3 mg/kg, 45 min, N = 3, p < 0.01", "value": 178.8, "unit": "%"},
      {"measurement": "Motility Index", "setting": "[4]; intravenous 0.3 mg/kg, 60 min, N = 3, p < 0.01", "value": 162.3, "unit": "%"},
      {"measurement": "Motility Index", "setting": "[4]; intravenous 0.3 mg/kg, 75 min, N = 3, p < 0.001", "value": 181.0, "unit": "%"},
      {"measurement": "Motility Index", "setting": "[4]; intravenous 0.3 mg/kg, 90 min, N = 3", "value": 166.7, "unit": "%"},
      {"measurement": "Motility Index", "setting": "[4]; intravenous 0.3 mg/kg, 105 min, N = 3", "value": 150.1, "unit": "%"},
      {"measurement": "Motility Index", "setting": "[4]; intravenous 0.3 mg/kg, 120 min, N = 3", "value": 123.5, "unit": "%"},
      {"measurement": "Motility Index", "setting": "[4]; oral 1 mg/kg, 0 min (value prior to administration, = 100), N = 3", "value": 100, "unit": "%"},
      {"measurement": "Motility Index", "setting": "[4]; oral 1 mg/kg, 15 min, N = 3", "value": 179.5, "unit": "%"},
      {"measurement": "Motility Index", "setting": "[4]; oral 1 mg/kg, 30 min, N = 3", "value": 238.6, "unit": "%"},
      {"measurement": "Motility Index", "setting": "[4]; oral 1 mg/kg, 45 min, N = 3", "value": 295.0, "unit": "%"},
      {"measurement": "Motility Index", "setting": "[4]; oral 1 mg/kg, 60 min, N = 3", "value": 238.8, "unit": "%"},
      {"measurement": "Motility Index", "setting": "[4]; oral 1 mg/kg, 75 min, N = 3", "value": 252.3, "unit": "%"},
      {"measurement": "Motility Index", "setting": "[4]; oral 1 mg/kg, 90 min, N = 3", "value": 193.9, "unit": "%"},
      {"measurement": "Motility Index", "setting": "[4]; oral 1 mg/kg, 105 min, N = 3", "value": 251.7, "unit": "%"},
      {"measurement": "Motility Index", "setting": "[4]; oral 1 mg/kg, 120 min, N = 3", "value": 257.8, "unit": "%"},
      {"measurement": "Motility Index", "setting": "[4]; oral 1 mg/kg, 135 min, N = 3, p < 0.05", "value": 220.6, "unit": "%"},
      {"measurement": "Motility Index", "setting": "[4]; oral 1 mg/kg, 150 min, N = 3", "value": 158.1, "unit": "%"},
      {"measurement": "Motility Index", "setting": "[4]; oral 1 mg/kg, 165 min, N = 3", "value": 201.9, "unit": "%"},
      {"measurement": "Motility Index", "setting": "[4]; oral 1 mg/kg, 180 min, N = 3, p < 0.05", "value": 188.9, "unit": "%"},
      {"measurement": "motor action on the gastrointestinal tract", "setting": "[4]; intravenous and oral administrations, both during the fasting period and after feeding, vehicle alone no influence", "value": "showed acceleration on the motor action on the gastrointestinal tract"},
      {"measurement": "Residual rate in Stomach", "setting": "[5]; subcutaneous 0.03 mg/kg, 5 cases", "value": 59.2, "unit": "%"},
      {"measurement": "Residual rate in Stomach", "setting": "[5]; subcutaneous 0.1 mg/kg, 5 cases", "value": 50.4, "unit": "%"},
      {"measurement": "Residual rate in Stomach", "setting": "[5]; subcutaneous 0.3 mg/kg, 6 cases", "value": 38.7, "unit": "%"},
      {"measurement": "Residual rate in Stomach", "setting": "[5]; subcutaneous 1.0 mg/kg, 6 cases", "value": 40.0, "unit": "%"},
      {"measurement": "action on gastric emptying", "setting": "[5]; subcutaneous administration", "value": "inhibited dose-dependent accelerating action on gastric emptying"}
    ]},
    {"smiles": "CN1[C@@H]2CC[C@H]1C[C@@H](OC(=O)c1cc3ccccc3[nH]c1=O)C2", "note": "[Test Drug 2]", "values": [
      {"measurement": "EC50", "setting": "[2]; [6]", "value": "> 3000", "unit": "nM"}
    ]},
    {"smiles": "CCCCn1c(=O)c(C(=O)N[C@H]2C[C@H]3CC[C@@H](C2)N3C)c(O)c2ccccc21", "note": "[Test Drug 3]", "values": [
      {"measurement": "EC50", "setting": "[2]; [6]", "value": "> 3000", "unit": "nM"}
    ]},
    {"smiles": "COc1cc(N)c(Cl)cc1C(=O)NC1CCN2CCCC1C2", "note": "(centres unmarked) [renzapride]", "values": [
      {"measurement": "gastrointestinal motor functions", "setting": "[1]", "value": "accelerate gastrointestinal motor functions"}
    ]}
  ]
}
